# From patent US20260184712A1, “Heterocyclic Compounds as ENT Inhibitors and Compounds for Use in the Treatment of Cancers” (iTeos Belgium SA, priority 2022, published 2026)
# Test system: stimulated primary human T cells
# Assay: T cell proliferation assay, Condition B (X-VIVO15, 2% HSA and 0.1% AAG)
# Format: cell-based
# Conditions: Homo sapiens, T-cell, 96 h; Condition B: X-VIVO15 medium containing HSA and α1-Acid Glycoprotein; anti-CD3/anti-CD28 beads, ATP, 4 days; CFSE-lo T cells
# Procedure: (§1) The goal of this study was to determine the potency of ENT1 inhibitors by measuring the rescued proliferation of stimulated primary human T cells incubated in the presence of 100 uM Adenosine triphosphate (ATP), in baseline conditions (condition A) or in the presence of various proteins known to bind small molecules (condition B).
# Condition B: X-VIVO15, 2% Human Serum Albumin (HSA) and 0.1% α-1-Acid Glycoprotein (AAG)
# (§2) Venous blood from healthy volunteers, all of whom signed an informed consent approved by the Ethics Committee (FOR—UIC—BV-050-01-01 ICF_HBS_HD Version 5.0), was obtained by ImmuneHealth (Centre Hospitalier Universitaire Tivoli, La Louviere, Belgium). Mononuclear cells were collected by density gradient centrifugation, using SepMate-50 tubes (StemCell Technologies, Grenoble, France) and Lymphoprep (Stemcell Technologies) according to the manufacturer's instructions. CD3+ T cells were isolated by immunomagnetic negative selection, using the EasySep Human T Cell Isolation Kit (StemCell Technologies) as per the manufacturer's instructions. CD3+ T cells were stored in heat inactivated FBS (hiFBS; Gibco, ThermoFisher Scientific, Merelbeke, Belgium) and 10% DMSO in liquid nitrogen.
# (§3) Purified human CD3+ T cells were thawed and washed once with RPMI1640 medium, UltraGlutamine (Lonza, Verviers, Belgium) containing 10% hiFBS. Cells were resuspended in PBS containing 10% hiFBS at 1×10^7 cells/ml. One volume of cells was combined with a matching volume of 2 μM CFSE solution in PBS, mixed well by pipetting, and incubated at room temperature for 5 minutes under rotation and protected from light. Excess CFSE was quenched by addition of PBS containing 10% hiFBS, and the cells were centrifuged (300×rcf, 7 minutes) and resuspended in X-VIVO15. Cells were again centrifuged and resuspended in X-VIVO15 for counting.
# (§4) Cells were resuspended at 1.6×10^6 cells/mL in X-VIVO15 medium (Condition A) or X-VIVO15 medium containing 4% (v/v) HSA (Sigma-Aldrich, Diegem, Belgium) and 0.2% (v/v) ai-Acid Glycoprotein (Sigma-Aldrich, Diegem, Belgium) (Condition B).
# (§5) […] of cell suspension (2×10^4 cells) was added to wells of sterile flat-bottom 384-well plates. Cells were activated by adding […] of anti-CD3 anti-CD28 coated microbeads (Dynabeads human T-activator CD3/CD28; Life Technologies, Paisley, UK) suspended in X-VIVO15 medium or X-VIVO15 medium containing 4% (v/v) HSA and 0.2% (v/v) ai-Acid Glycoprotein at a ratio of one microbead per two cells. Serial dilutions of the ENT1 inhibitors were conducted in X-VIVO15 medium and […] of the diluent was added to the wells. Cells were mixed by pipetting up and down and pre-incubated for 30 minutes in a 37° C. humidified tissue culture incubator with 5% CO2. After pre-incubation, cells were cultured in the presence or absence of ATP (Sigma-Aldrich) at a final concentration of […]. The final well volume was 50 μl in all cases. Experiments were performed in biological duplicates. Cells were mixed by pipetting up and down and incubated for 4 days in a 37° C. humidified tissue culture incubator with 5% CO2.
# (§6) Samples were run on a BD LSR Fortessa FACS machine (BD FACSDiva Software v9.0.1). Data were analyzed using FlowJo (BD, v10.7.1). T cell proliferation was determined by measuring the frequency of ‘CFSE^lo’ (i.e. CFSE-diluted).
# (§7) T cell proliferation data were analyzed using FlowJo software (Version 10.6.2). Dead cells and cellular debris were excluded on the basis of forward and side scatter profile and singlet cells were selected for further analysis.
# (§8) T cell proliferation was determined based on the percent CFSE^lo total T cells for each condition. The data were plotted on the y-axis against log molar (M) concentration of ENT1 inhibitors on the x-axis in GraphPad Prism (version 9.0.0). IC50 and IC90 values were generated with the ‘log(agonist) vs. response—Find ECanything(F))’ function with F constrained to 50 or 90, respectively. pICF values were generated by taking the −logECF values.
row,SMILES,IC50 [nM]
1,CC(C)Nc1nc2c(OCc3ccc(C#N)cc3)ncnc2n1[C@@H]1O[C@H](C)[C@@H](O)[C@H]1O [Compound 40],20 to 500
2,OC[C@H]1O[C@@H](n2c(NC3CCCC3)nc3c(SCc4ccccc4)ncnc32)[C@H](O)[C@@H]1O [Compound 158],20 to 500
3,C[C@H]1O[C@H](n2c(NCc3ccccc3)nc3c(OCc4ccc(OC(F)F)cc4)ncnc32)[C@H](O)[C@@H]1O [Compound 8],20 to 500
4,C[C@H]1O[C@@H](n2c(NC3CC3)nc3c(OCc4ccc([N+](=O)[O-])cc4)ncnc32)[C@H](O)[C@@H]1O [Compound 26],20 to 500
5,C[C@H]1O[C@@H](n2c(NCC3CCOCC3)nc3c(OCc4ccc(OC(F)F)cc4)ncnc32)[C@H](O)[C@@H]1O [Compound 113],20 to 500
6,C[C@H]1O[C@@H](n2c(N[C@@H]3CCOC3)nc3c(OCc4ccc(C#N)cc4)ncnc32)[C@H](O)[C@@H]1O [Compound 77],20 to 500
7,C[C@H]1O[C@@H](n2cnc3c(N4CCc5cc([N+](=O)[O-])ccc5C4)ncnc32)[C@H](O)[C@@H]1O [Compound 196],> 500
8,C[C@H]1O[C@@H](n2cnc3c(SCc4ccc(C#N)cc4)ncnc32)[C@H](O)[C@@H]1O [Compound 165],> 500
9,CCNc1nc2c(N3CCc4ccc([N+](=O)[O-])cc4C3)ncnc2n1[C@@H]1O[C@H](C)[C@@H](O)[C@H]1O [Compound 150],20 to 500
10,C[C@H]1O[C@@H](n2cnc3c(OCCc4ccc(C#N)nn4)ncnc32)[C@H](O)[C@@H]1O [Compound 188],> 500
11,OC[C@H]1O[C@@H](n2cnc3c(OCc4ccc(OC(F)(F)F)cc4)nc(Cl)nc32)[C@H](O)[C@@H]1O [Compound 156],20 to 500
12,C[C@H]1O[C@@H](n2c(OCc3ccccc3)nc3c(OCc4ccc([N+](=O)[O-])cc4)ncnc32)[C@H](O)[C@@H]1O [Compound 2],20 to 500
13,CC(C)Nc1nc2c(N3CCc4ccc(C#N)cc4C3)ncnc2n1[C@@H]1O[C@H](C)[C@@H](O)[C@H]1O [Compound 154],> 500
14,C[C@H]1O[C@@H](n2c(NC3CCCC3)nc3c(OCc4ccc(OC(F)F)nc4)ncnc32)[C@H](O)[C@@H]1O [Compound 14],20 to 500

# Test system: stimulated primary human T cells
# Assay: T cell proliferation assay, Condition A (X-VIVO15)
# Format: cell-based
# Conditions: Homo sapiens, T-cell, 96 h; Condition A: X-VIVO15 medium; anti-CD3/anti-CD28 beads, ATP, 4 days; CFSE-lo T cells
# Procedure: as §1, §2, §3, §4, §5, §6, §7, §8
row,SMILES,IC50 [nM]
1,CC(C)Nc1nc2c(OCc3ccc(C#N)cc3)ncnc2n1[C@@H]1O[C@H](C)[C@@H](O)[C@H]1O [Compound 40],< 1
2,OC[C@H]1O[C@@H](n2c(NC3CCCC3)nc3c(SCc4ccccc4)ncnc32)[C@H](O)[C@@H]1O [Compound 158],1 to 20
3,C[C@H]1O[C@H](n2c(NCc3ccccc3)nc3c(OCc4ccc(OC(F)F)cc4)ncnc32)[C@H](O)[C@@H]1O [Compound 8],< 1
4,C[C@H]1O[C@@H](n2c(NC3CC3)nc3c(OCc4ccc([N+](=O)[O-])cc4)ncnc32)[C@H](O)[C@@H]1O [Compound 26],1 to 20
5,C[C@H]1O[C@@H](n2c(NCC3CCOCC3)nc3c(OCc4ccc(OC(F)F)cc4)ncnc32)[C@H](O)[C@@H]1O [Compound 113],< 1
6,C[C@H]1O[C@@H](n2c(N[C@@H]3CCOC3)nc3c(OCc4ccc(C#N)cc4)ncnc32)[C@H](O)[C@@H]1O [Compound 77],< 1
7,C[C@H]1O[C@@H](n2cnc3c(N4CCc5cc([N+](=O)[O-])ccc5C4)ncnc32)[C@H](O)[C@@H]1O [Compound 196],1 to 20
8,C[C@H]1O[C@@H](n2cnc3c(SCc4ccc(C#N)cc4)ncnc32)[C@H](O)[C@@H]1O [Compound 165],1 to 20
9,CCNc1nc2c(N3CCc4ccc([N+](=O)[O-])cc4C3)ncnc2n1[C@@H]1O[C@H](C)[C@@H](O)[C@H]1O [Compound 150],1 to 20
10,C[C@H]1O[C@@H](n2cnc3c(OCCc4ccc(C#N)nn4)ncnc32)[C@H](O)[C@@H]1O [Compound 188],1 to 20
11,OC[C@H]1O[C@@H](n2cnc3c(OCc4ccc(OC(F)(F)F)cc4)nc(Cl)nc32)[C@H](O)[C@@H]1O [Compound 156],1 to 20
12,C[C@H]1O[C@@H](n2c(OCc3ccccc3)nc3c(OCc4ccc([N+](=O)[O-])cc4)ncnc32)[C@H](O)[C@@H]1O [Compound 2],< 1
13,CC(C)Nc1nc2c(N3CCc4ccc(C#N)cc4C3)ncnc2n1[C@@H]1O[C@H](C)[C@@H](O)[C@H]1O [Compound 154],1 to 20
14,C[C@H]1O[C@@H](n2c(NC3CCCC3)nc3c(OCc4ccc(OC(F)F)nc4)ncnc32)[C@H](O)[C@@H]1O [Compound 14],< 1

# Target: T1, human ENT1 (Homo sapiens, UniProt Q99808)
# T1 construct: JAR cells expressing ENT1 were purchased from ATCC; host or cells: JAR cells
# T1 sequence (Q99808 1-456): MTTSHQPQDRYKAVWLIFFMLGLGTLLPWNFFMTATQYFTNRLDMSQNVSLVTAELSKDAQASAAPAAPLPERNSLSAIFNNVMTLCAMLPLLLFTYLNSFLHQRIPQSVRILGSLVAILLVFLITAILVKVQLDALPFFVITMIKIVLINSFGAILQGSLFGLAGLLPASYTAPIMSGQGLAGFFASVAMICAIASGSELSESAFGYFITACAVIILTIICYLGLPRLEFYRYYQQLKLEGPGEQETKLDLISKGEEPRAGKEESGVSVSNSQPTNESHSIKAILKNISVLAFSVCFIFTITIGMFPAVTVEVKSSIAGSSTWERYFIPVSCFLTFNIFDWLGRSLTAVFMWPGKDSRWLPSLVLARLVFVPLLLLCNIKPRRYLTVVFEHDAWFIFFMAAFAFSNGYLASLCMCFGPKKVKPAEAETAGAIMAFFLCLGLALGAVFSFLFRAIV
# Assay: ENT1 binding assay (competition with Sahenta-DY647 on JAR cells)
# Conditions: competition with SAHENTA-DY647 binding; IC50 categorized; read-out: Binding Assay IC50
# How it was run: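 Whole-cell competition on JAR cells (native ENT1): 50,000 cells pre-incubated 30 min at 4 °C with compound in HBSS/10 mM Hepes/0.1% BSA, then 100 nM Sahenta-DY647 added for 30 min at 4 °C. After washing, fluorescence (Ex 630/Em 670 nm) read; IC50 from sigmoidal fit, averaged as pIC50.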
row,IC50 [nM],SMILES
1,1 to 20,CC(C)Nc1nc2c(OCc3ccc(C#N)cc3)ncnc2n1[C@@H]1O[C@H](C)[C@@H](O)[C@H]1O [Compound 40]
2,1 to 20,OC[C@H]1O[C@@H](n2c(NC3CCCC3)nc3c(SCc4ccccc4)ncnc32)[C@H](O)[C@@H]1O [Compound 158]
3,1 to 20,C[C@H]1O[C@H](n2c(NCc3ccccc3)nc3c(OCc4ccc(OC(F)F)cc4)ncnc32)[C@H](O)[C@@H]1O [Compound 8]
4,1 to 20,C[C@H]1O[C@@H](n2c(NC3CC3)nc3c(OCc4ccc([N+](=O)[O-])cc4)ncnc32)[C@H](O)[C@@H]1O [Compound 26]
5,1 to 20,C[C@H]1O[C@@H](n2c(NCC3CCOCC3)nc3c(OCc4ccc(OC(F)F)cc4)ncnc32)[C@H](O)[C@@H]1O [Compound 113]
6,1 to 20,C[C@H]1O[C@@H](n2c(N[C@@H]3CCOC3)nc3c(OCc4ccc(C#N)cc4)ncnc32)[C@H](O)[C@@H]1O [Compound 77]
7,20 to 500,C[C@H]1O[C@@H](n2cnc3c(N4CCc5cc([N+](=O)[O-])ccc5C4)ncnc32)[C@H](O)[C@@H]1O [Compound 196]
8,20 to 500,C[C@H]1O[C@@H](n2cnc3c(SCc4ccc(C#N)cc4)ncnc32)[C@H](O)[C@@H]1O [Compound 165]
9,1 to 20,CCNc1nc2c(N3CCc4ccc([N+](=O)[O-])cc4C3)ncnc2n1[C@@H]1O[C@H](C)[C@@H](O)[C@H]1O [Compound 150]
10,20 to 500,C[C@H]1O[C@@H](n2cnc3c(OCCc4ccc(C#N)nn4)ncnc32)[C@H](O)[C@@H]1O [Compound 188]
11,1 to 20,OC[C@H]1O[C@@H](n2cnc3c(OCc4ccc(OC(F)(F)F)cc4)nc(Cl)nc32)[C@H](O)[C@@H]1O [Compound 156]
12,1 to 20,C[C@H]1O[C@@H](n2c(OCc3ccccc3)nc3c(OCc4ccc([N+](=O)[O-])cc4)ncnc32)[C@H](O)[C@@H]1O [Compound 2]
13,1 to 20,CC(C)Nc1nc2c(N3CCc4ccc(C#N)cc4C3)ncnc2n1[C@@H]1O[C@H](C)[C@@H](O)[C@H]1O [Compound 154]
14,< 1,C[C@H]1O[C@@H](n2c(NC3CCCC3)nc3c(OCc4ccc(OC(F)F)nc4)ncnc32)[C@H](O)[C@@H]1O [Compound 14]
